Like-named read-outs stand apart in the source and are kept apart here.
What was measured:
MES-SA-DX5 = experiment: MTT cell viability assay, MES-SA-DX5; format: cell-based, human; conditions: multidrug resistant, P-gp overexpressing, read-out: IC50 (µM) in Cultured Cells MES-SA-DX5
Description: (§1) Cell lines used for cytotoxicity assays included MCF-7 (human breast adenocarcinoma), A549 (human lung adenocarcinoma), K562 (human chronic myelogenous leukemia) and HEK-293 (human embryonic kidney) cells and were obtained from the Iranian Biological Resource Center, Tehran, Iran. MES-SA-DX5 multidrug resistant human uterine sarcoma, over-expressing P-gp and their parental non-resistant MES-SA cell lines were purchased from Sigma-Aldrich (St. Louis, MO, USA). All cells, except for HEK-293, were cultured in RPMI 1640 supplemented with 10% FBS and 100 units/mL penicillin-streptomycin at 37 °C in humidified air containing 5% CO2. HEK-293 cells were maintained in DMEM-F12 medium containing L-glutamine 2 mM supplemented with FBS and penicillin-streptomycin. MES-SA-DX5 cells were maintained in media containing 100 nM doxorubicin in order to ensure that only drug-resistant cells continue to grow.
(§2) Cytotoxicity of the test compounds were evaluated by MTT assay. In this method, reduction of MTT, a yellow tetrazolium salt to the purple formazan, by cellular dehydrogenase enzymes is determined as an index of cell viability. Cancer cells were seeded into 96-well plates (3–5 × 10^3 cells/well) and incubated for 24 h at 37 °C. Afterwards, four different concentrations of synthesized derivatives were added in triplicate and the cells were incubated at 37 °C for another 72 h, after which the media was replaced with MTT solution at a concentration of 0.5 mg/mL was added for MTT assay. After another 4h, formazan crystals were dissolved in 200 μL DMSO for 90 min and absorbance was measured at a wavelength of 570 nm with background correction at 650 nm using a microplate reader (model 680, Bio-Rad, Hercules, CA, USA) and IC50 for each compound was calculated with CurveExpert version 1.34 for Windows.

MCF-7 = experiment: MTT cell viability assay, MCF-7; format: cell-based, human; conditions: read-out: IC50 (µM) in Cultured Cells MCF-7
Description: as §1, §2

A-549 = experiment: MTT cell viability assay, A-549; format: cell-based, human; conditions: read-out: IC50 (µM) in Cultured Cells A-549
Description: as §1, §2

K562 = experiment: MTT cell viability assay, K562; format: cell-based, human; conditions: read-out: IC50 (µM) in Cultured Cells K562
Description: as §1, §2

MES-SA = experiment: MTT cell viability assay, MES-SA; format: cell-based, human; conditions: for IC50: MTT, 72 h, parental non-resistant, read-out: IC50 (µM) in Cultured Cells MES-SA
Description: as §1, §2

HEK-293 = experiment: MTT cell viability assay, HEK-293; format: cell-based, human; conditions: non-cancerous, read-out: IC50 (µM) in Cultured Cells HEK-293
Description: as §1, §2

MES-SA-DX5 cells = experiment: Cell cycle analysis by propidium iodide (PI)-RNase flow cytometry; format: cell-based, human; set-up: Sub G1: unit not given here; conditions: 24 h
Experimental: The analysis of cells in different phases of cell cycle and sub-G1 was performed using propidium iodide (PI)-RNase assay by flow cytometry. MES-SA-DX5 cells were seeded in 12-well plates (1 × 10^6 cells/well) and treated with different concentrations of synthesized compounds for 24 h. The cells were then collected, washed with PBS, and fixed with 70% ethanol overnight at –20 °C. After at least 24 h, fixed cells were washed with PBS and subsequently stained with a DNA staining solution containing PI 20 μg/mL and RNase 200 μg/mL at room temperature for 30 min in the dark. Twenty thousand cells of each sample were analyzed using a BD FACSCalibur flow cytometer (BD Biosciences, USA) and the amount of the cells in sub-G1, G0/G1, S, and G2/M phases were estimated using CellQuest (Becton Dickinson, San Jose, CA, USA) software.
Therefore, it could be concluded that these compounds cause cytotoxicity in drug resistant MES-SA-DX5 cells by induction of apoptosis in these cells.
Figure 3 Effect of synthesized derivatives on cell cycle alterations in MES-SA-DX5 drug resistant cells. The cells in different phases of cell cycle were monitored using propidium iodide (PI)-RNase assay by flow cytometry. MES-SA-DX5 cells were seeded in 12-well plates (1 × 10^6 cells/well) and treated with different concentrations of synthesized compounds for 24 h. The cells were then collected, washed with PBS and fixed with 70% ethanol overnight at –20 °C. After at least 24 h, fixed cells were washed with PBS and subsequently stained with a DNA staining solution containing PI 20 μg/mL and RNase 200 μg/mL at room temperature for 30 min in the dark. Twenty thousand cells of each sample were analyzed using a FACS Calibur flow cytometer (BD Biosciences, USA). Representative histograms of cells treated with synthesized compounds are shown. An increase in sub-G1 phase cells could be observed after treatment with A1, A2, B1, and B2 compounds.

Row | Compound | IC50 (MCF-7; Homo sapiens, MCF7, 72 h) | IC50 (A-549; Homo sapiens, A549, 72 h) | melting point | IC50 (K562; Homo sapiens, K562, 72 h) | IC50 (MES-SA-DX5; Homo sapiens, MES-SA/Dx5, 72 h) | IC50 (HEK-293; 72 h) | IC50 (MES-SA; Homo sapiens, MES-SA) | IC50 (HEK-293; Homo sapiens, HEK293, 72 h) | further results
1 | 4-(3,4-Dimethoxyphenyl)-2-methyl-N-(5-methylthiazol-2-yl)-5-oxo-5,6,7,8-tetrahydroquinoline-3-carboxamide [Compound B8] | – | – | – | – | – | – | – | – | IC50 (MES-SA-DX5; 72 h): > 100 µM; IC50 (MCF-7; 72 h): > 100 µM; IC50 (A-549; 72 h): > 100 µM; IC50 (K562; 72 h): 67.5 ± 8 µM
2 | N.N.[Cl][Pt][Cl] [Cisplatin, cisplatin, reference compound] | – | – | – | – | – | 1.1 ± 0.5 µM | – | – | IC50 (MES-SA-DX5; 72 h): 8.6 ± 0.5 µM; IC50 (MCF-7; 72 h): 26.3 ± 7.9 µM; IC50 (MES-SA): 1.2 ± 0.1 µM; IC50 (A-549; 72 h): 14 ± 0.5 µM; IC50 (K562; 72 h): 3.3 ± 2.3 µM
3 | CC1=C(C(=O)Nc2csc(C)n2)C(c2cccc(Cl)c2)C2=C(CCCC2=O)N1 (stereo not shown) [Compound A3, 4-(3-Chlorophenyl)-2-methyl-N-(2-methylthiazol-4-yl)-5-oxo-1,4,5,6,7,8-hexahydroquinoline-3-carboxamide] | > 100 µM | > 100 µM | 253 °C | 56.4 ± 7 µM | 78 ± 4 µM | 93.7 ± 11.9 µM | > 100 µM | > 50 µM | G0/G1 (MES-SA-DX5 cells; 10 µM): 50.35 ± 4.5; G2/M (MES-SA-DX5 cells; 10 µM): 23.25 ± 1.6; S (MES-SA-DX5 cells; 10 µM): 18.23 ± 2.6; Sub G1 (MES-SA-DX5 cells; 10 µM): 0.51 ± 0.1; G0/G1 (MES-SA-DX5 cells; 25 µM): 56.18 ± 1.2; G2/M (MES-SA-DX5 cells; 25 µM): 23.08 ± 1.0; S (MES-SA-DX5 cells; 25 µM): 19.70 ± 2.0; Sub G1 (MES-SA-DX5 cells; 25 µM): 0.97 ± 0.2; G0/G1 (MES-SA-DX5 cells; 100 µM): 53.64 ± 1.4; G2/M (MES-SA-DX5 cells; 100 µM): 29.46 ± 1.8; S (MES-SA-DX5 cells; 100 µM): 13.31 ± 1.0
4 | CCOc1cc(-c2c(C(=O)Nc3csc(C)n3)c(C)nc3c2C(=O)CCC3)ccc1O [Compound B6, 4-(3-Ethoxy-4-hydroxyphenyl)-2-methyl-N-(2-methylthiazol-4-yl)-5-oxo-5,6,7,8-tetrahydroquinoline-3-carboxamide] | > 100 µM | > 100 µM | 267 °C | > 100 µM | > 100 µM | – | – | – | –
5 | COc1ccc(C2C(C(=O)Nc3csc(C)n3)=C(C)NC3=C2C(=O)CCC3)cc1 (stereo not shown) [Compound A7, 4-(4-Methoxyphenyl)-2-methyl-N-(2-methylthiazol-4-yl)-5-oxo-1,4,5,6,7,8-hexahydroquinoline-3-carboxamide] | > 100 µM | > 100 µM | 185 °C | > 100 µM | > 100 µM | – | – | – | –
6 | Cc1nc(NC(=O)c2c(C)nc3c(c2-c2cccc(Cl)c2)C(=O)CCC3)cs1 [Compound B3, 4-(3-Chlorophenyl)-2-methyl-N-(2-methylthiazol-4-yl)-5-oxo-5,6,7,8-tetrahydroquinoline-3-carboxamide] | > 100 µM | > 100 µM | 241 °C | 50.2 ± 2.6 µM | 85.2 ± 7.4 µM | > 100 µM | > 100 µM | > 50 µM | –

Now from value to compound, other results behind:

Row | IC50 (MCF-7; Homo sapiens, MCF7, 72 h) | IC50 (A-549; Homo sapiens, A549, 72 h) | melting point | IC50 (K562; Homo sapiens, K562, 72 h) | Compound | IC50 (MES-SA-DX5; Homo sapiens, MES-SA/Dx5, 72 h) | IC50 (HEK-293; 72 h) | IC50 (MES-SA; Homo sapiens, MES-SA) | IC50 (HEK-293; Homo sapiens, HEK293, 72 h) | further results
7 | > 100 µM | > 100 µM | 222 °C | > 100 µM | COc1ccc(C2C(C(=O)Nc3csc(C)n3)=C(C)NC3=C2C(=O)CCC3)cc1OC (stereo not shown) [Compound A8, 4-(3,4-Dimethoxyphenyl)-2-methyl-N-(2-methylthiazol-4-yl)-5-oxo-1,4,5,6,7,8-hexahydroquinoline-3-carboxamide] | > 100 µM | – | – | – | –
8 | > 100 µM | > 100 µM | 251 °C | > 100 µM | CCOc1cc(C2C(C(=O)Nc3csc(C)n3)=C(C)NC3=C2C(=O)CCC3)ccc1O (stereo not shown) [Compound A6, 4-(3-Ethoxy-4-hydroxyphenyl)-2-methyl-N-(2-methylthiazol-4-yl)-5-oxo-1,4,5,6,7,8-hexahydroquinoline-3-carboxamide] | > 100 µM | – | – | – | –
9 | > 100 µM | > 100 µM | 166 °C | 32.9 ± 5.1 µM | COc1ccc(-c2c(C(=O)Nc3csc(C)n3)c(C)nc3c2C(=O)CCC3)cc1 [Compound B7, 4-(4-Methoxyphenyl)-2-methyl-N-(2-methylthiazol-4-yl)-5-oxo-5,6,7,8-tetrahydroquinoline-3-carboxamide] | > 100 µM | – | – | – | –
10 | > 100 µM | > 100 µM | 160 °C | > 100 µM | COc1cc(C2C(C(=O)Nc3csc(C)n3)=C(C)NC3=C2C(=O)CCC3)cc(OC)c1OC (stereo not shown) [Compound A4, 2-Methyl-N-(2-methylthiazol-4-yl)-5-oxo-4-(3,4,5-trimethoxyphenyl)-1,4,5,6,7,8-hexahydroquinoline-3-carboxamide] | > 100 µM | – | – | – | –
11 | > 100 µM | > 100 µM | 238 °C | > 100 µM | COc1cc(-c2c(C(=O)Nc3csc(C)n3)c(C)nc3c2C(=O)CCC3)cc(OC)c1OC [Compound B4, 2-Methyl-N-(2-methylthiazol-4-yl)-5-oxo-4-(3,4,5-trimethoxyphenyl)-5,6,7,8-tetrahydroquinoline-3-carboxamide] | > 100 µM | – | – | – | –
12 | 89.5 ± 3.5 µM | 91 ± 4.6 µM | 251 °C | 10.4 ± 1.5 µM | Cc1nc(NC(=O)c2c(C)nc3c(c2-c2ccc(Cl)cc2)C(=O)CCC3)cs1 [Compound B5, 4-(4-Chlorophenyl)-2-methyl-N-(2-methylthiazol-4-yl)-5-oxo-5,6,7,8-tetrahydroquinoline-3-carboxamide] | 62.3 ± 5.5 µM | 64.2 ± 1.1 µM | > 100 µM | > 50 µM | G0/G1 (MES-SA-DX5 cells; 10 µM): 53.87 ± 0.7; G2/M (MES-SA-DX5 cells; 10 µM): 27.27 ± 2.6; S (MES-SA-DX5 cells; 10 µM): 18.13 ± 1.9; Sub G1 (MES-SA-DX5 cells; 10 µM): 0.62 ± 0.1; G0/G1 (MES-SA-DX5 cells; 25 µM): 55.43 ± 1.3; G2/M (MES-SA-DX5 cells; 25 µM): 26.07 ± 2.7; S (MES-SA-DX5 cells; 25 µM): 17.73 ± 1.3; Sub G1 (MES-SA-DX5 cells; 25 µM): 0.69 ± 0.1; G0/G1 (MES-SA-DX5 cells; 100 µM): 57.58 ± 0.9; G2/M (MES-SA-DX5 cells; 100 µM): 26.87 ± 0.9; S (MES-SA-DX5 cells; 100 µM): 13.62 ± 0.8
13 | 0.115 ± 0.042 µM | 0.575 ± 0.127 µM | – | 0.042 ± 0.006 µM | COc1cccc2c1C(=O)c1c(O)c3c(c(O)c1C2=O)C[C@@](O)(C(=O)CO)C[C@@H]3O[C@H]1C[C@H](N)[C@H](O)[C@H](C)O1 [Doxorubicin, reference compound] | 2.2 ± 0.3 µM | – | 0.01 ± 0.002 µM | 0.009 ± 0.002 µM | sensitivity of parental MES-SA cells compared to resistant cells (MES-SA; MES-SA vs MES-SA-DX5, MTT): more than 200 times; G0/G1 (MES-SA-DX5 cells; 2.5 µM): 34.23 ± 3.3; G2/M (MES-SA-DX5 cells; 2.5 µM): 52.10 ± 4.4; S (MES-SA-DX5 cells; 2.5 µM): 12.57 ± 1.4; Sub G1 (MES-SA-DX5 cells; 2.5 µM): 1.08 ± 0.2; G0/G1 (MES-SA-DX5 cells; 5 µM): 21.50 ± 2.5; G2/M (MES-SA-DX5 cells; 5 µM): 64.13 ± 4.2; S (MES-SA-DX5 cells; 5 µM): 12.57 ± 1.7; Sub G1 (MES-SA-DX5 cells; 5 µM): 1.81 ± 0.3
